Laboratory results reported in publication PMC8220083 (Frontiers in Pharmacology, 2021).

Tests used:
[1] = tested on: Lactobacillus spp.; parameters: method as in Catry et al., 2015; settings: ref Catry et al., 2015; cited from earlier work
[2] = target: T1, Human leukocyte elastase (HLE-G) (Homo sapiens, UniProt P08246); test: Inhibition of HLE-G enzymatic activity; assay type: biochemical
T1 construct: purchased Athens Research & Technology 16-14-051200
T1 sequence (P08246 30-267): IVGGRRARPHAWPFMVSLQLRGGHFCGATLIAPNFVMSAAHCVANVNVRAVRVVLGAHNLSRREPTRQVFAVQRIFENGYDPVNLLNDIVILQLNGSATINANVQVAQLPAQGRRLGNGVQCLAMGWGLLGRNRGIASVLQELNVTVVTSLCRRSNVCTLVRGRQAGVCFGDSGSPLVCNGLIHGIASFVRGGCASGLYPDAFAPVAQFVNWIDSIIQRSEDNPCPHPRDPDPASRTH
Protocol: Inhibition of HLE-G enzymatic activity. Two-fold serial dilutions of HLE-G in 100 µl Tris-buffered saline (pH 7.8) were added to rows of wells of a microtiter plate as previously described ([Bristow et al., 1991]). […] The microtiter plate was incubated for 10 min at 37°C. The HLE-G substrate (Succinyl-L-Ala-L-Ala-L-Ala-p-nitroanilide, Sigma) was added to all wells, and absorbance at 405 nm was detected kinetically at 23°C using an MRX plate reader.

[3] = parameters: method as in Nissen et al., 2016; settings: ref Nissen et al., 2016, cited from earlier work
[4] = target: T2, cell surface human leukocyte elastase (HLE-CS) on U937 Clone 10 cells (Homo sapiens, UniProt P08246); test: Cellular adherence to glass (HLE-CS interaction); assay type: cell-based; settings: 2,000 U937 cells per well
T2 construct: endogenous in cells; host or cells: human U937 Clone 10 cells
T2 sequence (P08246 30-267): T1 sequence (P08246 30-267)
From the text: Cellular adherence. […] […] Unattached cells were removed by washing using AIM-V, and attached cells were fixed by application of 4% paraformaldehyde. Attached cells were counted by light microscopy.

[5] = Diet-induced obesity (DIO) mouse model, lipoprotein levels; assay type: in vivo, C57BL/6J mice; settings: 60% fat diet, daily oral gavage, vs vehicle control
Protocol: Animal Studies. Animal studies were performed by Jackson Laboratory (Bar Harbor, ME), an OLAW-Assured and AAALAC accredited institution. All research was reviewed and approved by the Institutional Animal Care and Use Committee (IACUC) prior to commencing. The study used 16–17 weeks old male DIO C57BL/6J mice that had been maintained on a 10% (control) or 60% high-fat diet. […] Treatment was delivered by daily oral gavage at the same time of day for 12 weeks. Blood was collected by retro-orbital bleed every 3 weeks for measurement of total cholesterol, LDL, HDL, triglycerides, […] free fatty acids and glucose using the Beckman Coulter AU680 Chemistry System.
Food consumption was monitored twice weekly, and body weight was monitored weekly. As mice gained weight on the 60% high-fat diet during the study, dosing was adjusted accordingly. Mice were monitored for adverse effects (e.g., labored breathing, aberrant weight change). Three mice were lost during the study. […] The mice lost in the ezetimibe group were due to a severe bite wound and an unknown causes. The mouse lost in the Alphataxin group was due to an abnormal amount of gas in the stomach attributed to a gavaging error.

[6] = tested on: Leishmania amazonensis promastigotes; parameters: method as in Andrade-Neto et al., 2016; settings: ref Andrade-Neto et al., 2016; read-out: IC50 for killing Leishmania amazonensis promastigotes; cited from earlier work

SMILES: O=C1[C@H](CC[C@H](O)c2ccc(F)cc2)[C@@H](c2ccc(O)cc2)N1c1ccc(F)cc1 [Ezetimibe]
- effect on intestinal microbiome [1]: increasing the Lactobacillus spp.
- IC50 ([2]; compound vs. HLE-G (75 µM), 10 min at 37°C, 5 min with substrate): 277 µM
- HLE-G Molar excess ([2]; molar excess of compound to HLE-G at IC50): 3.7
- effectiveness in lowering LDL levels vs PCSK9 inhibitors ([3]; p < 0.001): significantly less effective
- individuals with muscle symptoms [3]: 28%
- HLE-CS Adherent cells ([4]; at optimal concentration): 40 ± 3
- HLE-CS Optimal concentration ([4]; optimal adherence concentration): 100 nM
- LDL levels ([5]; after 3 weeks, ezetimibe 10 mg/kg, Alphataxin 5 mg/kg): significantly decreased
- triglyceride levels ([5]; weeks 3, 6, 8): did not
- IC50 [6]: 30 µM
